Columns and labels:
[1] = system: epiderimoid carcinoma of the nasopharynx (KB); assay: in vitro cytotoxicity assay, KB; assay type: cell-based, human; details: drug exposure 3 days
Method: (§1) Biological Assay. The in vitro cytotoxicity assay was carried out according to procedures described in Rubinstein et al. (P. Ferguson et al., Cancer Res. 1988, 48, 5956-5964). […] The human tumor cell line panel consisted of epiderimoid carcinoma of the nasopharynx (KB), lung carcinoma (A-549), ileocecal carcinoma (HCT-8), renal cancer (CAKI-1), breast cancer (MCF-7), melanoma cancer (SKMEL-2), and ovarian cancer (1A9). The drug resistant cell line panel consisted of three KB-derivatives, -7d, -CPT, and -VCR. The properties of these cells are described elsewhere (P. Ferguson et al., Cancer Res. 1988, 48, 5956-5964; D. Beidler et al., Cancer Res. 1996, 56, 345-353). […] They were a generous gift of Dr. P. Giannakakou (P. Giannakakou et al., J. Biol. Chem. 1997, 27, 17118-17125). Cells were cultured at 37° C. in RPMI-1640 with 100 ug/mL kanamycin and 10% (v/v) fetal bovine serum in a humidified atmosphere containing 5% CO2. Initial seeding densities varied among the cell lines to ensure a final absorbance of 1-2.5 A562 units. Drug exposure was for 3 days, and the ED50 value, the drug concentration that reduced the absorbance by 50%, was interpolated from dose-response data.

lung carcinoma (A-549) = assay: in vitro cytotoxicity assay, A549; details: read-out: Cytotoxicity (ED50) A549; A549; drug exposure 3 days; NA = not active
Method: as §1

[2] = system: ileocecal carcinoma (HCT-8); assay: in vitro cytotoxicity assay, HCT-8; details: read-out: Cytotoxicity (ED50) HCT-8; HCT-8; drug exposure 3 days; NA = not active
Method: as §1

renal cancer (CAKI-1) = assay: in vitro cytotoxicity assay, CAKI-1; details: read-out: Cytotoxicity (ED50) CAKI-1; CAKI-1; drug exposure 3 days
Method: as §1

breast cancer (MCF-7) = assay: in vitro cytotoxicity assay, MCF-7; details: read-out: Cytotoxicity (ED50) MCF-7; MCF-7; drug exposure 3 days
Method: as §1

[3] = system: melanoma cancer (SKMEL-2); assay: in vitro cytotoxicity assay, SK-MEL-2; details: read-out: Cytotoxicity (ED50) SK-MEL-2; SK-MEL-2; drug exposure 3 days; NA = not active
Method: as §1

ovarian cancer (1A9) = assay: in vitro cytotoxicity assay, 1A9; details: read-out: Cytotoxicity (ED50) 1A9 (OVCAR); 1A9 (OVCAR); drug exposure 3 days
Method: as §1

KB-7d = assay: cytotoxicity in drug resistant cell line KB-7d; assay type: cell-based, human; details: KB-7d drug resistant KB derivative
Method: as §1
(§2) The newly synthesized taxoid-4′-O-demethyl epipodophyllotoxin conjugates were evaluated in house using standard cytotoxicity assays in human tumor (HTCL) and drug-resistant (DRCL) cell lines. Reference compounds were paclitaxel (1), cephalomannine (2), and epipodophyllotoxins [etoposide (5) and GL-331 (7), see FIG. 1]. The HTCL panel was comprised of KB, A549, HCT-8, CAKI-1, MCF-7, SK-MEL-2, and 1A9 cell lines. Two paclitaxel-resistant 1A9 sub-lines designated as PAX-10 and PAX-22 were also tested as part of the DRCL panel. Other resistant-cell lines were KB derivatives expressing various mechanisms or multi-drug resistance as described elsewhere (P. Ferguson et al., Cancer Res. 1988, 48, 5956-5964; D. Beidler et al., Cancer Res. 1996, 56, 345-353).

KB-VCR = assay: cytotoxicity in drug resistant cell line KB-VCR; assay type: cell-based, human; details: KB-VCR drug resistant KB derivative
Method: as §1, §2

KB-CPT = assay: cytotoxicity in drug resistant cell line KB-CPT; assay type: cell-based, human; details: KB-CPT drug resistant KB derivative
Method: as §1, §2

PAX-10 = assay: cytotoxicity in paclitaxel-resistant 1A9 sub-line PAX-10; assay type: cell-based, human; details: PAX-10 paclitaxel-resistant 1A9 sub-line
Method: as §1, §2

PAX-22 = assay: cytotoxicity in paclitaxel-resistant 1A9 sub-line PAX-22; assay type: cell-based, human; details: PAX-22 paclitaxel-resistant 1A9 sub-line
Method: as §1, §2

leukemia cell lines = assay: NCI human tumor cell lines, leukemia; assay type: cell-based; details: average over all cell lines of the tumor type; data provided by the NCI
[4] = system: Non-small cell lung cancer cell lines; assay: NCI human tumor cell lines, NSCL; assay type: cell-based; details: average over all cell lines of the tumor type; data provided by the NCI
Colon cell lines = assay: NCI human tumor cell lines, colon; assay type: cell-based; details: average over all cell lines of the tumor type; data provided by the NCI
[5] = system: Central nervous system cancer cell lines; assay: NCI human tumor cell lines, CNS; assay type: cell-based; details: average over all cell lines of the tumor type; data provided by the NCI
melanoma cell lines = assay: NCI human tumor cell lines, melanoma; assay type: cell-based; details: average over all cell lines of the tumor type; data provided by the NCI
ovarian cell lines = assay: NCI human tumor cell lines, ovarian; assay type: cell-based; details: average over all cell lines of the tumor type; data provided by the NCI
renal cell lines = assay: NCI human tumor cell lines, renal; assay type: cell-based; details: average over all cell lines of the tumor type; data provided by the NCI
prostate cell lines = assay: NCI human tumor cell lines, prostate; assay type: cell-based; details: average over all cell lines of the tumor type; data provided by the NCI
breast cell lines = assay: NCI human tumor cell lines, breast; assay type: cell-based; details: average over all cell lines of the tumor type; data provided by the NCI
Topoisomerase II = Topoisomerase II activity assay (inhibition of topo II in vitro); assay type: biochemical; details: NA^1 not active at 50 uM, NA^2 not active at 100 uM
Excerpt: (§3) Protein-Linked DNA Break and Topoisomerase 11 Activity Assays. The procedures were done according to detailed published methods (K. Bastow et al., Bioorg. Med. Chem. 1997, 5, 1481-1488).

[6] = system: Cellular protein-DNA complex formation; assay: Protein-linked DNA break assay (cellular protein-DNA complex formation); assay type: cell-based
Excerpt: as §3

[7] = system: paclitaxel resistant cells; assay: cytotoxicity against paclitaxel resistant cells (overall); assay type: cell-based, human; details: compared with the unconjugated components, Table 3
Method: as §1, §2

[8] = system: approximately 60 human tumor cell lines; assay: NCI cytotoxicity evaluation in approximately 60 human tumor cell lines (overall); assay type: cell-based; details: especially leukemia, colon, and prostate cell lines

COc1cc([C@@H]2c3cc4c(cc3[C@@H](N=Cc3ccc(C(=O)O[C@@H](C(=O)O[C@H]5C[C@@]6(O)[C@@H](OC(=O)c7ccccc7)[C@@H]7[C@]8(OC(C)=O)CO[C@@H]8C[C@H](O)[C@@]7(C)C(=O)[C@H](OC(C)=O)C(=C5C)C6(C)C)[C@@H](NC(=O)c5ccccc5)c5ccccc5)cc3)[C@H]3COC(=O)[C@H]23)OCO4)cc(OC)c1O [Compound 12]
Cytotoxicity (ED50) KB [1]: 3 nM
EC50 (lung carcinoma (A-549)): 210 nM
EC50 [2]: 540 nM
EC50 (renal cancer (CAKI-1)): > 250 nM
EC50 (breast cancer (MCF-7)): 330 nM
EC50 [3]: > 400 nM
EC50 (ovarian cancer (1A9)): 30 nM
Resistance Fold KB-7d (KB-7d): 1
Resistance Fold KB-VCR (KB-VCR): 17
Resistance Fold KB-CPT (KB-CPT): 1
Resistance Fold PAX-10 (PAX-10): 7
Resistance Fold PAX-22 (PAX-22): 17
log GI50 leukemia (leukemia cell lines): −7.60
log GI50 NSCL [4]: −6.58
log GI50 Colon (Colon cell lines): −7.20
log GI50 CNS [5]: −6.93
log GI50 melanoma (melanoma cell lines): −6.29
log GI50 ovarian (ovarian cell lines): −6.55
log GI50 renal (renal cell lines): −6.13
log GI50 prostate (prostate cell lines): −7.22
log GI50 breast (breast cell lines): −6.56
Inhibition of Topo II IC100 (Topoisomerase II): 100 µM
Cellular protein-DNA complex formation ([6]; Etoposide given as 100, NA^1 not active at 50 uM, NA^2 not active at 100 uM): 8 +/− 2%
intracellular poisoning / stimulation of protein-DNA breaks in cells (in words) ([6]; in cells): intracellular poisons
activity against paclitaxel resistant cells (in words) [7]: enhanced activity against paclitaxel resistant cells
inhibitory effects against NCI tumor cell lines (in words) [8]: strongest inhibitory effects against a variety of tumor cell lines
